Like-named read-outs stand apart in the source and are kept apart here.
Assays:
[1] = target: T1, Recombinant STAT6 protein (STAT6 (W123-T658)) (Homo sapiens, UniProt P42226); assay: STAT6 Fluorescence Polarization (FP) Assay; type: binding; details: 45-minute incubation
T1 construct: Recombinant STAT6 protein (STAT6 (W123-T658))
T1 sequence (P42226 123-658): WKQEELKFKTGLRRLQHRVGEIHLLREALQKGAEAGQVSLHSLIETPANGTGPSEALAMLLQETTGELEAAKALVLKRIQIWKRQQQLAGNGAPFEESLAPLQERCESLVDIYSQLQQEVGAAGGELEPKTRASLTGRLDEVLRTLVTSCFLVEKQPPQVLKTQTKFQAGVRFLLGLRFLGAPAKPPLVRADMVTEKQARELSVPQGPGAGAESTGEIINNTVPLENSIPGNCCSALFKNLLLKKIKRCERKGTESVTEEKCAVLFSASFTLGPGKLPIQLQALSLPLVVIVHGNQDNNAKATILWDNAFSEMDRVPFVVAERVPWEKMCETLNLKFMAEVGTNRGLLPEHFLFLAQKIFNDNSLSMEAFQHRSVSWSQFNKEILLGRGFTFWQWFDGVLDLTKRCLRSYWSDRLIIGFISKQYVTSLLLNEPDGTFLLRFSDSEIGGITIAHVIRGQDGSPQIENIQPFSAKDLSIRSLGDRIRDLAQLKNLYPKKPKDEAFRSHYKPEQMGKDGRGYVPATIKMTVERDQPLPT
In short: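 Serially diluted compounds received a premix of STAT6 (W123-T658, 250 nM) and 5-FAM peptide probe (2 nM) in pH 7.4 HEPES buffer containing DTT and Tween 20. Following 45 min at room temperature, FP was recorded. IC50s were fitted by nonlinear regression; values are binned A (≤300 nM), B (>300-3000 nM), C (>3-30 μM), D (>30 μM).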

[2] = target: T2, Recombinant STAT3 protein (STAT3 (G127-I722)) (Homo sapiens, UniProt P40763); assay: STAT3 Fluorescence Polarization (FP) Assay; type: binding; details: probe 5-FAM-GpYLPQTV-NH2 2 nM, 45-minute incubation
T2 construct: Recombinant STAT3 protein (STAT3 (G127-I722))
In short: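 Displacement of a 2 nM 5-FAM-labelled pY peptide (GpYLPQTV) from 25 nM recombinant STAT3 (G127-I722) was monitored by fluorescence polarization. Incubation lasted 45 min at room temperature in pH 7.4 HEPES buffer containing 1% DMSO.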

[3] = STAT6 (W123-T658) 250 nM, probe 5-FAM-Ap[…]-NH2 2 nM, read-out: STAT6 (FP assay IC50 class)
[4] = STAT3 (G127-I722) 25 nM, read-out: STAT3 (FP assay IC50 class)
[5] = STAT6 250 nM, probe 5-FAM-Ap[…]-NH2 2 nM, read-out: STAT6 (FP assay IC50)
[6] = STAT3 25 nM, read-out: STAT3 (FP assay IC50)

T2 sequence (P40763 127-722): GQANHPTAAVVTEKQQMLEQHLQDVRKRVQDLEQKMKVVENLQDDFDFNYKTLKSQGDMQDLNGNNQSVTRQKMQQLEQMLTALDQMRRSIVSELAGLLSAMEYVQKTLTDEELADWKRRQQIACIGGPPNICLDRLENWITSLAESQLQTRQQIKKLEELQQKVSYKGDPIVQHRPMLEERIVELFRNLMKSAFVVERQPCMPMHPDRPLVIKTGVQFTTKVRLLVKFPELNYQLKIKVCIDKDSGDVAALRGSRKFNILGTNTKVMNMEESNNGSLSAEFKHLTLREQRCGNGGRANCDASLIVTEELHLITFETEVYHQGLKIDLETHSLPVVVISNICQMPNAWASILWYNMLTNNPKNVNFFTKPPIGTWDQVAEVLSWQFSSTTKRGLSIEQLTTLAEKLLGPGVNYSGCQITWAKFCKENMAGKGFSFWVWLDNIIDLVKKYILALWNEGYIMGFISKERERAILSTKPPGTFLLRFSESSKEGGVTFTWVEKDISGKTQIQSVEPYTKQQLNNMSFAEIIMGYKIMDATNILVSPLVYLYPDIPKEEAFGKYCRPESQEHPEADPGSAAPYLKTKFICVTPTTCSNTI

SMILES | IC50 [1, 3] | IC50 [2, 4] | IC50 [1, 5] | IC50 [2, 6] | IC50 ([1]; STAT6 250 nM, probe 5-FAM-ApYKPFQDLI-NH2 2 nM, read-out: STAT6 (FP assay IC50))
CNc1ccncc1C1CN(C(=O)[C@@H]2CC[C@@H]3CCC[C@H](NC(=O)c4cc5cc(CP(=O)(O)O)ccc5s4)C(=O)N32)C1 [Compound 606, ((2-(((3S,6S,9aS)-3-(3-(4-(methylamino)pyridin-3-yl)azetidine-1-carbonyl)-5-oxooctahydro-1H-pyrrolo[1,2-a]azepin-6-yl)carbamoyl)benzo [b]thiophen-5-yl)methyl) phosphonic acid] | 3000 to 30000 nM | < 100 nM | – | – | –
O=C(NC1CCCC[C@H]2CC[C@@H](C(=O)N3CC(c4ccccc4)CC34CC4)N2C1=O)c1cc2cc(C(F)(F)P(=O)(O)O)ccc2s1 (stereo partly drawn) [Compound 89, (difluoro(2-(((3S,10aS)-5-oxo-3-(6-phenyl-4-azaspiro[2.4]heptane-4-carbonyl)decahydropyrrolo [1,2-a]azocin-6-yl)carbamoyl)benzo[b]thiophen-5-yl)methyl) phosphonic acid] | – | – | ≤ 300 nM | 1000 to 10000 nM | –
CC1(C)CC(c2ccccc2)CN1C(=O)[C@@H]1CC[C@@H]2CCCC[C@H](NC(=O)c3cc4cc(C(F)(F)P(=O)(O)O)ccc4s3)C(=O)N21 (stereo partly drawn) [Compound 813, ((2-(((3S,6S,10aS)-3-(2,2-dimethyl-4-phenylpyrrolidine-1-carbonyl)-5-oxodecahydropyrrolo [1,2-a]azocin-6-yl)carbamoyl)benzo [b]thiophen-5-yl)difluoromethyl) phosphonic acid] | 300 to 3000 nM | 1000 to 10000 nM | – | – | –
COc1cncc([C@@H]2CN(C(=O)[C@@H]3CC[C@@H]4CCC[C@H](NC(=O)c5cc6cc([C@H](F)P(=O)(O)O)ccc6s5)C(=O)N43)C3(CC3)[C@H]2C#N)c1 (single isomer, unassigned) [Compound 843] | 300 to 3000 nM | 1000 to 10000 nM | – | – | –
CC1CCC[C@H](NC(=O)c2cc3cc(C(F)(F)P(=O)(O)O)ccc3s2)C(=O)N2[C@@H]1CC[C@H]2C(=O)N1C[C@H](c2cc[nH]c(=O)c2)[C@@H](C#N)C1 (single isomer, unassigned) [Compound 104, ((2-(((3S,6S,10aR)-3-((3R,4S or 3S,4R)-3-cyano-4-(2-oxo-1,2-dihydropyridin-4-yl)pyrrolidine-1-carbonyl)-10-methyl-5-oxodecahydropyrrolo [1,2-a]azocin-6-yl)carbamoyl)benzo[b]thiophen-5-yl)difluoromethyl) phosphonic acid] | – | – | – | 100 to 1000 nM | 300 to 3000 nM
CCc1ccncc1C1CN(C(=O)[C@@H]2CC[C@@H]3CCC[C@H](NC(=O)c4ccc5cc(CP(=O)(O)O)sc5c4)C(=O)N32)C1 [Compound 550, ((6-(((3S,6S,9aS)-3-(3-(4-ethylpyridin-3-yl)azetidine-1-carbonyl)-5-oxooctahydro-1H-pyrrolo[1,2-a]azepin-6-yl)carbamoyl)benzo[b]thiophen-2-yl)methyl)phosphonic acid] | 3000 to 30000 nM | 100 to 1000 nM | – | – | –
O=C(N[C@H]1CCCC[C@H]2CC[C@@H](C(=O)N3CC(Oc4ccccc4)C3)N2C1=O)c1cc2cc(C(F)(F)P(=O)(O)O)ccc2s1 [Compound 39, (difluoro(2-(((3S,6S,10aS)-5-oxo-3-(3-phenoxyazetidine-1-carbonyl)decahydropyrrolo [1,2-a]azocin-6-yl)carbamoyl)benzo[b]thiophen-5-yl)methyl) phosphonic acid] | – | – | 300 to 3000 nM | 100 to 1000 nM | –
O=C(N[C@H]1CCCC[C@H]2CC[C@@H](C(=O)N3C[C@@H](c4ccccc4)CC34CC4)N2C1=O)c1cc2cc(C(F)(F)P(=O)(O)O)ccc2s1 (single isomer, unassigned) [Compound 889] | ≤ 300 nM | 1000 to 10000 nM | – | – | –
O=C(N[C@H]1CCC[C@H]2CC[C@@H](C(=O)N3CC(c4ncccn4)C3)N2C1=O)c1cc2cc(C(F)(F)P(=O)(O)O)ccc2s1 [Compound 46, (difluoro(2-(((3S,6S,9aS)-5-oxo-3-(3-(pyrimidin-2-yl)azetidine-1-carbonyl)octahydro-1H-pyrrolo[1,2-a]azepin-6-yl)carbamoyl)benzo[b]thiophen-5-yl)methyl) phosphonic acid] | – | – | 3000 to 30000 nM | < 100 nM | –
CCc1ccncc1C1CN(C(=O)[C@@H]2CC[C@@H]3CCC[C@H](NC(=O)c4cn5cc(CP(=O)(O)O)ccc5n4)C(=O)N32)C1 [Compound 575, ((2-(((3S,6S,9aS)-3-(3-(4-ethylpyridin-3-yl)azetidine-1-carbonyl)-5-oxooctahydro-1H-pyrrolo[1,2-a]azepin-6-yl)carbamoyl)imidazo[1,2-a]pyridin-6-yl)methyl)phosphonic acid] | 3000 to 30000 nM | 1000 to 10000 nM | – | – | –
O=C(N[C@H]1CCCC[C@H]2CC[C@@H](C(=O)N3CC(c4cncc(-c5ccccc5)c4)C3)N2C1=O)c1cc2cc(C(F)(F)P(=O)(O)O)ccc2s1 [Compound 518, (difluoro(2-(((3S,6S,10aS)-5-oxo-3-(3-(5-phenylpyridin-3-yl)azetidine-1-carbonyl)decahydropyrrolo[1,2-a]azocin-6-yl)carbamoyl)benzo[b]thiophen-5-yl)methyl)phosphonic acid] | 3000 to 30000 nM | 100 to 1000 nM | – | – | –
CN(C)c1cncc(C2CN(C(=O)[C@@H]3CC[C@@H]4CCC[C@H](NC(=O)c5cc6cc([C@H](F)P(=O)(O)O)ccc6s5)C(=O)N43)C2)c1Cl (single isomer, unassigned) [Compound 713] | 3000 to 30000 nM | 100 to 1000 nM | – | – | –
Cn1cc(C2CN(C(=O)[C@@H]3CC[C@@H]4CCC[C@H](NC(=O)c5cc6cc(C(F)P(=O)(O)O)ccc6s5)C(=O)N43)C2)c(C#N)n1 (stereo partly drawn) [Compound 734, ((2-(((3S,6S,9aS)-3-(3-(3-cyano-1-methyl-1H-pyrazol-4-yl)azetidine-1-carbonyl)-5-oxooctahydro-1H-pyrrolo[1,2-a]azepin-6-yl)carbamoyl)benzo [b]thiophen-5-yl)fluoromethyl) phosphonic acid] | 300 to 3000 nM | 100 to 1000 nM | – | – | –
O=C(N[C@H]1CCC[C@H]2CC[C@@H](C(=O)N3CC(c4cccnc4)C3)N2C1=O)c1cc2cc(CP(=O)(O)O)ccc2s1 [Compound 78, ((2-(((3S,6S,9aS)-5-oxo-3-(3-(pyridin-3-yl)azetidine-1-carbonyl)octahydro-1H-pyrrolo[1,2-a]azepin-6-yl)carbamoyl)benzo[b]thiophen-5-yl)methyl) phosphonic acid] | – | – | > 30000 nM | 100 to 1000 nM | –
O=C(N[C@H]1CCCC[C@H]2CC[C@@H](C(=O)N3CC(c4cnccc4F)C3)N2C1=O)c1cc2cc(CP(=O)(O)O)ccc2s1 [Compound 566, ((2-(((3S,6S,10aS)-3-(3-(4-fluoropyridin-3-yl)azetidine-1-carbonyl)-5-oxodecahydropyrrolo[1,2-a]azocin-6-yl)carbamoyl)benzo[b]thiophen-5-yl)methyl)phosphonic acid] | 3000 to 30000 nM | < 100 nM | – | – | –
Cc1ccncc1C1CN(C(=O)[C@@H]2CC[C@@H]3C[C@H](C)CC[C@H](NC(=O)c4cc5cc(CP(=O)(O)O)ccc5s4)C(=O)N32)C1 [Compound 656, ((2-(((3S,6S,9R,10aR)-9-methyl-3-(3-(4-methylpyridin-3-yl)azetidine-1-carbonyl)-5-oxodecahydropyrrolo [1,2-a]azocin-6-yl)carbamoyl)benzo [b]thiophen-5-yl)methyl) phosphonic acid] | 3000 to 30000 nM | 100 to 1000 nM | – | – | –
CCCC(=O)NC1(c2ccccn2)CN(C(=O)[C@@H]2CC[C@@H]3CCCC[C@H](NC(=O)c4cc5cc(C(F)(F)P(=O)(O)O)ccc5s4)C(=O)N32)C1 [Compound 122, ((2-(((3S,6S,10aS)-3-(3-butyramido-3-(pyridin-2-yl)azetidine-1-carbonyl)-5-oxodecahydropyrrolo[1,2-a]azocin-6-yl)carbamoyl)benzo[b]thiophen-5-yl)difluoromethyl)phosphonic acid] | – | – | 3000 to 30000 nM | < 100 nM | –
COC[C@@H]1CCN1c1ncncc1C1CN(C(=O)[C@@H]2CC[C@@H]3CCC[C@H](NC(=O)c4cc5cc([C@@H](F)P(=O)(O)O)ccc5s4)C(=O)N32)C1 (single isomer, unassigned) [Compound 669] | 3000 to 30000 nM | < 100 nM | – | – | –
O=C(N[C@H]1CCC[C@H]2CC[C@@H](C(=O)N3CC(C4=CCOCC4)C3)N2C1=O)c1cc2cc(CP(=O)(O)O)ccc2s1 [Compound 697, ((2-(((3S,6S,9aS)-3-(3-(3,6-dihydro-2H-pyran-4-yl)azetidine-1-carbonyl)-5-oxooctahydro-1H-pyrrolo[1,2-a]azepin-6-yl)carbamoyl)benzo [b]thiophen-5-yl)methyl) phosphonic acid] | 3000 to 30000 nM | 1000 to 10000 nM | – | – | –

Reference: patent publication US20250215029A1 (Recludix Pharma, Inc., priority 2022, published 2025)
